Consider 4 compounds from ChEMBL document CHEMBL5705888, “Substrate specificity and inhibitors of LRRK2, a protein kinase mutated in Parkinson's disease” (Biochem J, 2009).

Structures are written as SMILES.

The target in assay [1] is Calcium/calmodulin-dependent protein kinase type 1 (Homo sapiens) (UniProt Q14012). Description: Inhibition of CaMK1 (unknown origin) at 10 uM incubated for 30 mins in presence of [gamma-33P]ATP by multidrop micro reagent based assay relative to control; values are per cent of control.
Assay [2] addresses T1, Serine/threonine-protein kinase BRSK2 (Homo sapiens) (UniProt Q8IWQ3).
T1 sequence (whole entry): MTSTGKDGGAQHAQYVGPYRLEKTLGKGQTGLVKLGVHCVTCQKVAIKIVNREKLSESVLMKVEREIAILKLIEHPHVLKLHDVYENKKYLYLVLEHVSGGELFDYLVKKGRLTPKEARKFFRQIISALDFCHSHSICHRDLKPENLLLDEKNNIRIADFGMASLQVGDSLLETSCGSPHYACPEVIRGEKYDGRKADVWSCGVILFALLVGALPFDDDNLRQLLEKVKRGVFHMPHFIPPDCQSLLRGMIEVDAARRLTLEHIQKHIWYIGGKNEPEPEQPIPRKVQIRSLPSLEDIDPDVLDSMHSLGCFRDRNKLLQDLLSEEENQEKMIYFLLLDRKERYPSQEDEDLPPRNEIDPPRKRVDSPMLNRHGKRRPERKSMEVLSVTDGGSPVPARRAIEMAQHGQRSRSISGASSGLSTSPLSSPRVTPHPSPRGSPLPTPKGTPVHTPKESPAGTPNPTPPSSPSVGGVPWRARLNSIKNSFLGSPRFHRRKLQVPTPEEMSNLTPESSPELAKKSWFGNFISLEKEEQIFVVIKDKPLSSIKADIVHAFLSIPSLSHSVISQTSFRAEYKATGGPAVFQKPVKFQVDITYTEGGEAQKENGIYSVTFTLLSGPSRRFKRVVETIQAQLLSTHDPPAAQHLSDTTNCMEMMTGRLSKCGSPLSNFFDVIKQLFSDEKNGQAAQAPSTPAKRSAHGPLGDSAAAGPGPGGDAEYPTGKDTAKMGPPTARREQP
Briefly: Inhibition of BRSK2 (unknown origin) at 10 uM incubated for 30 mins in presence of [gamma-33P]ATP by multidrop micro reagent based assay relative to control.

For assay [3], the target named is Insulin receptor-related protein (Homo sapiens) (UniProt P14616). Briefly: Inhibition of IRR (unknown origin) at 10 uM incubated for 30 mins in presence of [gamma-33P]ATP by multidrop micro reagent based assay relative to control.
Assay [4] concerns the target T2, Serine/threonine-protein kinase STK11 (Homo sapiens) (UniProt Q15831).
T2 sequence (whole entry): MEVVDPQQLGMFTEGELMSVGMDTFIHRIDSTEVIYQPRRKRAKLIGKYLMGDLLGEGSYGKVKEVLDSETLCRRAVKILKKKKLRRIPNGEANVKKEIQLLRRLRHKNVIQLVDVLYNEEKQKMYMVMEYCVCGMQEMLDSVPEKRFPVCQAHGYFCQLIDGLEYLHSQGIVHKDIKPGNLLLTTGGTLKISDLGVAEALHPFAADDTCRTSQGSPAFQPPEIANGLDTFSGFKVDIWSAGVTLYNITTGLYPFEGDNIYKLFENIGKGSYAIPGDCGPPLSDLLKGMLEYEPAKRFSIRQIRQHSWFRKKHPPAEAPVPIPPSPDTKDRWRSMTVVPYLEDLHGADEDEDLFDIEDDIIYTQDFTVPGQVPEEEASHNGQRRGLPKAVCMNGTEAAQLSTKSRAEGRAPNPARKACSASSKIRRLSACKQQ
Description: Inhibition of LKB1 (unknown origin) at 10 uM incubated for 30 mins in presence of [gamma-33P]ATP by multidrop micro reagent based assay relative to control; values are per cent of control.

Assay [5] addresses MAP kinase-interacting serine/threonine-protein kinase 2 (Homo sapiens) (UniProt Q9HBH9). Description: Inhibition of MNK2 (unknown origin) at 10 uM incubated for 30 mins in presence of [gamma-33P]ATP by multidrop micro reagent based assay relative to control; values are per cent of control.
The target of assay [6] is T3, Dual specificity tyrosine-phosphorylation-regulated kinase 2 (Homo sapiens) (UniProt Q92630).
T3 sequence (whole entry): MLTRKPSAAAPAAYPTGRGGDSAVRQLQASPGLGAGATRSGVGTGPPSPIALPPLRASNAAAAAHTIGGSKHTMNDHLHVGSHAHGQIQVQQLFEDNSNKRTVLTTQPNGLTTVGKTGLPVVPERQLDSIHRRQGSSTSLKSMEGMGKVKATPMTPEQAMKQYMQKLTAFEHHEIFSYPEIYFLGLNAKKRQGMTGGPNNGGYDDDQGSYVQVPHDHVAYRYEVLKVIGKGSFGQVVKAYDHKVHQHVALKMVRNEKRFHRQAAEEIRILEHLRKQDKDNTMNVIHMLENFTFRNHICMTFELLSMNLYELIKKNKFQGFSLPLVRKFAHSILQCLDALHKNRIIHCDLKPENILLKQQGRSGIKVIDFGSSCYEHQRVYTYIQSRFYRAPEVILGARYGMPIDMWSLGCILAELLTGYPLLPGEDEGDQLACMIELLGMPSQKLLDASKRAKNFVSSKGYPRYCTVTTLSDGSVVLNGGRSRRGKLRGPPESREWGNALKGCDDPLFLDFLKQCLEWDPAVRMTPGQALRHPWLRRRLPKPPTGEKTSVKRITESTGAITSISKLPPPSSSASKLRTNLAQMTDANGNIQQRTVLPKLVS
Description: Inhibition of DYRK2 (unknown origin) at 10 uM incubated for 30 mins in presence of [gamma-33P]ATP by multidrop micro reagent based assay relative to control; values are per cent of control.

Assay [7] has as its target T4, Mitogen-activated protein kinase 15 (Homo sapiens) (UniProt Q8TD08).
T4 sequence (whole entry): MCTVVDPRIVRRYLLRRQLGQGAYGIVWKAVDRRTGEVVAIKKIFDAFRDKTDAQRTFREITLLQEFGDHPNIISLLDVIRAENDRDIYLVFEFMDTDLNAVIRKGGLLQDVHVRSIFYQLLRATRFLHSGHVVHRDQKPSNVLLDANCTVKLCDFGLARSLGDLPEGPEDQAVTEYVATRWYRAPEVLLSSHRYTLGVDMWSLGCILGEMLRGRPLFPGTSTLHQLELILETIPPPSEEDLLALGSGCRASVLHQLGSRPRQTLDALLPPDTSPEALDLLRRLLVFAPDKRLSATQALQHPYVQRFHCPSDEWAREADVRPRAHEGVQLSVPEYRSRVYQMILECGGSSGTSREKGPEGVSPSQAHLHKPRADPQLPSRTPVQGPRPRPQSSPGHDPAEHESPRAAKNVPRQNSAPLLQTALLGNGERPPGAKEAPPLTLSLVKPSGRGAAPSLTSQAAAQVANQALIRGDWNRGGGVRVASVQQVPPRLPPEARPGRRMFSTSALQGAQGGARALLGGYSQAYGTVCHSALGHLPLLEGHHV
Briefly: Inhibition of ERK8 (unknown origin) at 1 uM incubated for 30 mins in presence of [gamma-33P]ATP by multidrop micro reagent based assay relative to control; values are per cent of control.

Sequence of Calcium/calmodulin-dependent protein kinase type 1 (Homo sapiens) (Q14012 whole entry, looked up): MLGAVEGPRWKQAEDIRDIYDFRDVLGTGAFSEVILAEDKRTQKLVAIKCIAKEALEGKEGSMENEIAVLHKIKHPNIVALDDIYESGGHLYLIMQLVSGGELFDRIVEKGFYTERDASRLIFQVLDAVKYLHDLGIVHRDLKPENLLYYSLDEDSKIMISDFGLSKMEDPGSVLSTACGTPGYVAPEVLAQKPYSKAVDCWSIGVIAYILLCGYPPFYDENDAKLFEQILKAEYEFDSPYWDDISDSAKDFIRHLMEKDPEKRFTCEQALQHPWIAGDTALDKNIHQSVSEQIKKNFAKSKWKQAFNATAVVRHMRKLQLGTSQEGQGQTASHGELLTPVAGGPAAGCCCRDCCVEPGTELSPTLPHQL
Sequence of Insulin receptor-related protein (Homo sapiens) (P14616 27-742 limits assumed): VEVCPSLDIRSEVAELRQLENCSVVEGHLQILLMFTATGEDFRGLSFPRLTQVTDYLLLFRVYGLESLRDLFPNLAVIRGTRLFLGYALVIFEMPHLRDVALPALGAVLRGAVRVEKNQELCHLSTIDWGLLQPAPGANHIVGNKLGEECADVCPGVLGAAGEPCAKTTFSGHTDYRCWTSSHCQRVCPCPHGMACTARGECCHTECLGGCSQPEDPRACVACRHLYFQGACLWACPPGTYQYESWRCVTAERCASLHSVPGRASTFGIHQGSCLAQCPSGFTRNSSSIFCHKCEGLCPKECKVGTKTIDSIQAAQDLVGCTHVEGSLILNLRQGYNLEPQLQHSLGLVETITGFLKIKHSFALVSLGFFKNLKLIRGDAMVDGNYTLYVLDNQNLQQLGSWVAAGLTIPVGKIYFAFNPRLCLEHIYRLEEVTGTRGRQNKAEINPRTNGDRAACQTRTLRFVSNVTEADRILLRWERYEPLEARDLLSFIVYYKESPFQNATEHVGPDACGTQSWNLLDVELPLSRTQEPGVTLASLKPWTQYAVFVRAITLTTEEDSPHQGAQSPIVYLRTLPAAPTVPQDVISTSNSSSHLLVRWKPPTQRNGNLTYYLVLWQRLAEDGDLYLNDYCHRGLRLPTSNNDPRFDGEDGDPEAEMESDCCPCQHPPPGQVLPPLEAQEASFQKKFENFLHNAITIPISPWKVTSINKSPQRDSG
Sequence of Insulin receptor-related protein (Homo sapiens) (P14616 747-1297 limits assumed): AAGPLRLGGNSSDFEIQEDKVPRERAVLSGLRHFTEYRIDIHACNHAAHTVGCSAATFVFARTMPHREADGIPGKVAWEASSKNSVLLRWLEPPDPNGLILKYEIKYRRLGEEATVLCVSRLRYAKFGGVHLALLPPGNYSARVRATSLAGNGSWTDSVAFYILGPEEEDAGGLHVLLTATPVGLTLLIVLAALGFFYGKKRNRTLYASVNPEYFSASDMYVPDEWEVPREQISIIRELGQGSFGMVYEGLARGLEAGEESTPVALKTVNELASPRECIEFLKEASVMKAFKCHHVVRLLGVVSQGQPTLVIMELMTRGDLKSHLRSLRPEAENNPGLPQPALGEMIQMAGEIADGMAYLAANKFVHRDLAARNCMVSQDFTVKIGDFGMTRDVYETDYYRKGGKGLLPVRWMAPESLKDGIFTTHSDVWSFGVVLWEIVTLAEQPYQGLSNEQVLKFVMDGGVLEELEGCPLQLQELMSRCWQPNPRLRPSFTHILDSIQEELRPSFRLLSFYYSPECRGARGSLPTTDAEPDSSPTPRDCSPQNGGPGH
Sequence of MAP kinase-interacting serine/threonine-protein kinase 2 (Homo sapiens) (Q9HBH9 whole entry, looked up): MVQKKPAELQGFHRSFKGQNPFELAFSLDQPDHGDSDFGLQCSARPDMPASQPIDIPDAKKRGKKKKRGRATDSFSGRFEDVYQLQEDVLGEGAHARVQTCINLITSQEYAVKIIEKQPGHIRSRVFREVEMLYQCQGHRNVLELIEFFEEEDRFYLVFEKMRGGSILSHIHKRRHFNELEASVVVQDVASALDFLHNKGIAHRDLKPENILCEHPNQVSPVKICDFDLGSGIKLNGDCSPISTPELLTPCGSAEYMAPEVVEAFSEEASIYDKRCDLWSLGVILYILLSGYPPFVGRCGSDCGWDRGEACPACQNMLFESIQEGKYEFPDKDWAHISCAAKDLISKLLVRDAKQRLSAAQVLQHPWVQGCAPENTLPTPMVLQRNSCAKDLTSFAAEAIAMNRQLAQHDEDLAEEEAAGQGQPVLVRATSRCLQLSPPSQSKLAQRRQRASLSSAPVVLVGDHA

Broadly, the inhibition is the percentage by which the read-out fell short of the control. Turning to `C[C@@H](N)[C@H]1CC[C@H](C(=O)Nc2ccncc2)CC1`, the residual activity in assay [1] came out at 85%; in assay [4], 52%; in assay [5], 44%; in assay [6], 92%. Besides, the inhibition was 43% in assay [2] and 91% in assay [3].

Consider `CCn1c(-c2nonc2N)nc2cnc(Oc3cccc(NC(=O)c4ccc(OCCN5CCOCC5)cc4)c3)cc21` [GSK-269962A], for which the residual activity in assay [7] amounted to 27%.

In the case of `O=S(=O)(c1cccc2cnccc12)N1CCCNCC1` [FASUDIL], the residual activity came to 109% in assay [1], 33% in assay [4], 27% in assay [5] and 80% in assay [6]. The inhibition in assay [2] came out at 38%; in assay [3] it was 86%.

Take `CC1=C(C(=O)Nc2cc3cn[nH]c3cc2F)C(c2ccc(C(F)(F)F)cc2)CC(=O)N1` (centres undefined): the residual activity in assay [7] was determined as 95%.
